Experimental data taken from patent US8933270B2, “Use of docasatrienes, resolvins, and their stable analogs in the treatment of airway diseases and asthma” (The Brigham and Women's Hospital, Inc., priority 2002, dated 2015).

Key:
human recombinant COX-2 = molecular target: T1, human recombinant COX-2 (Homo sapiens, UniProt P35354); assay: Impact of NSAIDs on COX-2 conversion of DHA; format: biochemical
T1 construct: made in house; host or cells: Sf9 insect cells (microsomal fractions)
T1 sequence (P35354 18-604): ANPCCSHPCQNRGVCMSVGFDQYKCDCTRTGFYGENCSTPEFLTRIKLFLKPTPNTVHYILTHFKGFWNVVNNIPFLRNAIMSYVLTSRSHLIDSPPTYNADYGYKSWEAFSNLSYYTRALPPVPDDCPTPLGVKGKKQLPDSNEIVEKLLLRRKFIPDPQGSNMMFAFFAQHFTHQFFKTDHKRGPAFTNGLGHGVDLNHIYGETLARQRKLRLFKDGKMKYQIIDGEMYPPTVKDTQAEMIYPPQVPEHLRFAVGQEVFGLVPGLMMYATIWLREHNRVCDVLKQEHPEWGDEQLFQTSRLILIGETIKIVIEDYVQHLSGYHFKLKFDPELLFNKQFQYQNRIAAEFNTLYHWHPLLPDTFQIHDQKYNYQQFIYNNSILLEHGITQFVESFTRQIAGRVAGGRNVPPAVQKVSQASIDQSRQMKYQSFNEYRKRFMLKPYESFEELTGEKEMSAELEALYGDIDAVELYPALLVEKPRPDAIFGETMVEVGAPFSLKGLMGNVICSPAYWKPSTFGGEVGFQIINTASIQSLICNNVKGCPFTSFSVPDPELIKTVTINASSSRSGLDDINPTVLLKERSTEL
Description: Human recombinant COX-2 was overexpressed in Sf9 insect cells (ATCC). The microsomal fractions (˜8 μl) were suspended in Tris (100 mM, pH 8.0) as in (35). ASA was incubated (˜2 mM, 37° C., 30 min) with COX-2 before addition of DHA (10 μM), or in some experiments [1-^14C]-labeled DHA (from American Radiolabeled Chemicals, Inc.), and conversions were monitored in parallel using [1^−14C]-labeled C20:4 (with ASA) (as in FIG. 2; also see text).
Incubations were extracted with deuterium-labeled internal standards (15-HETE and C20:4) for LC-MS-MS analysis as in (33) using a Finnigan LCQ liquid chromatography ion trap tandem mass spectrometer (San Jose, Calif.) equipped with a LUNA C18-2 (150×2 mm×5 μm or 100×2 mm×5 μm) column and a rapid spectra scanning UV diode array detector that monitored UV absorbance ˜0.2 min prior to samples entering the MS-MS. All intact cell incubations and in vivo exudates were stopped with 2 ml cold methanol and kept at −80° C. for >30 minutes. Samples were extracted using C18 solid phase extraction and analyzed using GC-MS (see Table 2) (Hewlett-Packard), thin layer chromatography or tandem liquid chromatography-mass spectrometry (LC-MS-MS). Also, a Chiralcel OB-H column (4.6×250 mm; J. T. Baker) was used to determine R and S alcohol configurations of monohydroxy-PUFA using isocratic mobile phase (hexane:isopropanol; 97.5:2.5, vol:vol, with a 0.6 ml/min flow rate). Detailed procedures for isolation, quantitation and structural determination of lipid-derived mediators were recently reported (36) and used here essentially as reported for elucidation of novel products.
Results are the mean±SEM, n=3. Products were extracted, identified, and quantitated using deuterium internal standards and LC-MS-MS (see Methods).

PMN infiltration = assay: Zymosan A-induced peritonitis; format: in vivo, FVB mice; conditions: for inhibition of PMN/leukocyte infiltration: i.v. bolus before zymosan A, lavage at 2 h
Description: (§1) FIG. 5 depicts Bioimpact properties of omega-3-derived Resolvins. A) Human glioma cells: Inhibition of TNF-stimulated IL-1β transcripts DBTRG-05MG cells 10^6/ml were stimulated with 50 ng/ml of human recombinant TNFα for 16 hours to induce expression of IL-1β transcripts. Concentration dependence with COX-2 products: 17-HDHA (n), 13-HDHA (l)and di-/tri-HDHA (n). […] (insets) Results are representative of RT-PCR gels of MG cells exposed to 100 nM of 13-HDHA or 17-HDHA and graphed after normalization of the IL-1β transcripts using GAPDH. B) Influence of eicosanoids and docosanoids on fMLP-induced neutrophil migration across micovascular endothelial monolayers Neutrophils (1×10^6 cells/monolayer) were exposed to vehicle containing buffer, or indicated concentrations of aspirin-triggered LXA4 analog (closed diamonds) 5S,12,18R-triHEPE (closed squares), 17R-HDHA (closed circles) or 13-HDHA (closed triangles) for 15 minutes at 37° C. Neutrophils were then layered on HMVEC monolayers and stimulated to transmigrate by a 10^−8 M fMLP gradient for 1 hr at 37° C. Transmigration was assessed by quantitation of the neutrophil marker myeloperoxidase. Results are presented as mean±SEM number of PMN (n=8-12 monolayers per condition). C) Reduction of PMN in murine peritonitis and skin pouch peritonitis: Compounds (100 ng in 120 μL sterile saline) were injected by intravenous bolus injection into the mouse tail vein and followed by 1 ml zymosan A (1 mg/ml) into the peritoneum. Peritoneal lavages were collected (2 h) and cell types were enumerated.
Human PMN transendothelial migration was quantitated by monitoring myeloperoxidase (MPO) an azurophilic granule marker as in (34, 37). Inflammatory exudates were initiated with intrapouch injection of recombinant mouse TNFα (100 ng/pouch; R&D Systems) into dorsal air pouches (10) of 6-8 wk male FVB mice fed laboratory rodent diet 5001 (Lab Diet, Purina Mills) containing less than 0.25% arachidonic acid, 1.49% EPA and 1.86% DHA followed by ASA (500 μg) at 3.5 h and 300 μg DHA/pouch at 4 h post-TNFα injection. At 6 h (within the resolution phase), pouches were lavaged (3 ml saline) and exudate cells were enumerated Inhibition of TNFα stimulated (100 ng/pouch) PMN infiltration with i.v. tail injection of either 17R-HDHA (as prepared with COX-2 vide infra), 5S,12,18R-HEPE, or a 15-epi-LXA4 analog were determined with pouch lavages taken at 4 h. Peritonitis was performed using 6 to 8-week-old FVB male mice (Charles River Laboratories) fed laboratory Rodent Diet 5001 (Purina Mills) that were anesthetized with isoflurane, and compounds to be tested (125 μl) were administered intravenously. Zymosan A in 1 ml (1 mg/ml) was injected ˜1-1.5 min later in the peritoneum. Each test compound (100 ng/incubation, i.e. 17R-HDHA in ethanol) or vehicle alone was suspended in ˜5 μl and mixed in sterile saline 120 μl. Two hours after the intraperitoneal injections, and in accordance with the Harvard Medical Area Standing Committee on Animals protocol #02570, mice were euthanized and peritoneal lavages rapidly collected for enumeration.
Peritonitis was induced in 6 to 8 week old male FVB mice by peritoneal injection of 1 mg Zymosan A. Compounds 4,17S and 10,17S-diHDHA were injected by intravenous bolus injection, 1.5 minutes before Zymosan A treatment. Two hours after induction of peritonitis, rapid peritoneal lavages were collected and cell type enumeration was performed.

[1] = tested on: airway leukocyte accumulation; assay: OVA sensitization and aerosol challenge: lung histology and BAL leukocytes; format: in vivo
Description: To determine if PD1 and Resolvin E1 had properties of a counter-regulatory mediator during airway inflammation, physiologically relevant quantities (2, 20 or 200 ng) were administered by intravenous injection to allergen sensitized animals just prior (30 min) to aerosol challenge on 4 consecutive days. […] In conjunction with decreased airway inflammation, levels of the counter-regulatory eicosanoid LXA4 were also […] in the presence of PD1 (data not shown).
Five to seven week old male FvB mice (Charles River Laboratories, Wilmington, Mass.) were housed in isolation cages under viral antibody-free conditions. Mice were fed a standard diet (Laboratory Rodent Diet 5001, PMI Nutrition International, Richmond, Ind.) that contained no less than 4.5% total fat with 0.26% omega-3 fatty acids and <0.01% C20:4. After Harvard Medical Area IRB approval (Protocol #02570), mice were sensitized with intraperitoneal injections of ovalbumin (OVA) (Grade III; Sigma Chemical Co., St. Louis, Mo.) (10 μg) plus 1 mg aluminum hydroxide (ALUM) (J. T. Baker Chemical Co.; Phillipsburg, N.J.) as adjuvant in 0.2 ml PBS on days 0 and 7. On days 14, 15, 16 and 17, the mice received PD1 (2, 20 or 200 ng), Resolvin E1 (200 ng) (products of biogenic synthesis (Hong, Gronert et al. 2003)), or PBS with 1.6 mM CaCl2 and 1.6 mM MgCl2 (0.1 ml) by intravenous injection 30 min prior to an aerosol challenge containing either PBS or 6% OVA for 25 min/day. On day 18, 24 h after the last aerosol challenge, airway responsiveness to aerosolized methacholine (0, 20, 50 and 75 mg, 10 sec) was measured, bilateral bronchoalveolar lavage (BAL) (2 aliquots of 1 ml PBS plus 0.6 mM EDTA) was performed or tissues were harvested for histological analysis. Lung resistance was measured using a Flexivent ventilator (SciReq, Montreal, Quebec). Resistance was measured as a function of time for each animal, and peak and average values for each dose of methacholine were recorded. No BAL or histological analysis was performed on those animals undergoing airway hyper-responsiveness or lipid extraction studies.
Tissue morphometry was performed by a member (K. Haley) of the Lung Histopathology Core Laboratory at Brigham and Women's Hospital who was blinded to the experimental conditions prior to histological analyses. Three fields per slide were examined at 200× magnification for vessels, large airways and alveoli with EOS counted at 400× magnification in randomly assigned fields. Vessels were identified by perivascular smooth muscle, and large airways were identified by at least ½ their diameter either cuboidal or columnar epithelia. Measurement of inflammatory mediators was determined in cell-free BAL fluid (2000 g, 10 min) by sensitive and specific ELISAs, in tandem, for interleukin-5 (IL-5), IL-12, IL-13, PGD2 (R&D Systems, Minneapolis, Minn.), cysteinyl LTs, (Cayman Chemical Co, Ann Arbor, Mich.), and LXA4 (Neogen, Lexington, Ky.). Cells in BALF were resuspended in PBS, enumerated by hemocytometer, and concentrated onto microscope slides by cytocentrifuge (STATspin) (265 g). Cells were stained with a Wright-Giemsa stain (Sigma Chemical Co.) to determine leukocyte differentials (after counting ≧200 cells).

[2] = tested on: IL-1β transcripts in DBTRG-05MG cells; assay: Inhibition of TNF-stimulated IL-1β transcripts (RT-PCR); format: cell-based, human; conditions: 50 ng/ml TNFα, 16 h; read-out: IC50, inhibition of TNFα-induced IL-1β transcripts / cytokine expression
Description: as §1, with “C) Reduction of PMN in murine peritonitis and skin pouch peritonitis: Compounds (100 ng in 120 μL sterile saline) were injected by intravenous bolus injection into the mouse tail vein and followed by 1 ml zymosan A (1 mg/ml) into the peritoneum. Peritoneal lavages were collected (2 h) and cell types were enumerated.” left out
Human glioma cells DBTRG-05MG cells (ATCC) were cultured as recommended by ATCC. […] Results were analyzed using the NIH Image program (http://rsb.info.nih.gov/nih-image).

CC(=O)Nc1ccc(O)cc1 [Acetaminophen, acetaminophen]
% Increase of 17-HDHA (human recombinant COX-2; NSAID incubated 30 min with COX-2, ASA 2 mM, indomethacin 200 μM, acetaminophen 500 μM, NS398 100 μM, mean±SEM, n=3): 0.0% | inhibition at 500 µM (human recombinant COX-2; read-out: % Inhibition of 13-HDHA): 87.7 ± 4.3% | formation of 17R-HDHA from DHA by NSAID-treated COX-2 (human recombinant COX-2; recombinant COX-2 incubations): did not give appreciable amounts of 17R-HDHA

CCC(O)/C=C/C=C\C/C=C\C/C=C\C=C\[C@@H](O)CCCC(=O)O (mixture of isomers) [5S,18(+/−)-diHEPA]
potency relative to comparator at equal dose (PMN infiltration; PMN/leukocyte infiltration, FIG. 16 and FIG. 18): equipotent to Resolvin E1 | inhibition of PMN/leukocyte infiltration (PMN infiltration): downregulation of PMN infiltration | inhibition of PMN/leukocyte infiltration (PMN infiltration; listed as 5S,18(+/−)-diHEPE): reduction of neutrophil infiltration

CC/C=C\C[C@@H](O)/C=C/C=C\C/C=C\C=C\[C@@H](O)C/C=C\CCC(=O)O [7S,17R-diHDHA, 7S,17R-dihydroxy-docosa-4Z,8E,10Z,13Z,15E,19Z-hexaenoic acid]
inhibition of PMN/leukocyte infiltration (PMN infiltration): potent inhibitor

CC/C=C\C[C@H](O)/C=C/C=C\C=C\[C@@H](O)C/C=C\CC#CCCC(=O)O [4,5-dehydro 10,17S-dihydroxy DHA]
inhibition of the PMN infiltration (PMN infiltration; 100 ng dose): 40%

CC[C@@H](O)/C=C/C=C\C[C@@H](O)/C=C/C=C/C=C\[C@@H](O)CCCC(=O)O [Resolvin E1, 5S,12R,18R-trihydroxy-6Z,8E,10E,14Z,16E-eicosapentaenoic acid]
inhibition of PMN/leukocyte infiltration (PMN infiltration): reduction of neutrophil infiltration | eosinophil and lymphs (FIG. 25) ([1]; 10,17-DT 20 ng and 200 ng, Resolvin E1 200 ng): reduction | total leukocytes, EOS and Lymphs in BAL fluid ([1]; PD1 2, 20 or 200 ng, Resolvin E1 200 ng i.v.): decreased

CC/C=C\C/C=C\C=C\C(O)C/C=C\C/C=C\C/C=C\CCC(=O)O (stereo not shown) [13-HDHA, 13-hydroxy-DHA]
IC50 [2]: ~0.05 nM

CC/C=C\C[C@H](O)/C=C/C=C\CC(O)\C=C/C=C/C=C/[C@@H](O)CCC(=O)O (stereo partly drawn) [4S,11,17R-triHDHA, 4S,11,17S,-trihydroxy-docosa-5E,7E,9Z,13Z,15E,19Z-hexaenoic acid]
inhibition of PMN/leukocyte infiltration (PMN infiltration): potent inhibitor
